Tested on: NCI-H1417 complex spheroids, growth % test/control
Experiment: Anticancer human tumor NCI-H1417 cell line growth inhibition [Asc];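 also: spheroids exposed to compounds for 7 days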;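 as to viability, T/C: 100% = DMSO vehicle control wells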
Details: for IC50: curve of first compound; for viability, T/C: stronger effect = lower value
In short: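 Spheroid model: tumor line + HUVEC + hMSC. Single agents and combinations; top conc. at/near clinical Cmax (10 microM if undetermined), half-log dilutions. DMSO stocks at 800-fold test concentration.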

[1] = second compound 0.1 µM, first compound 0.0316 µM
[2] = second compound 0.1 µM, first compound 0.1 µM
[3] = second compound 0.1 µM, first compound 0.316 µM
[4] = second compound 0.1 µM, first compound 1 µM
[5] = second compound 0.316 µM, first compound 0.0316 µM
[6] = second compound 0.316 µM, first compound 0.1 µM
[7] = second compound 0.316 µM, first compound 0.316 µM
[8] = second compound 0.316 µM, first compound 1 µM
[9] = second compound 1 µM, first compound 0.0316 µM
[10] = second compound 1 µM, first compound 0.1 µM
[11] = second compound 1 µM, first compound 0.316 µM
[12] = second compound 1 µM, first compound 1 µM
[13] = second compound 3.16 µM, first compound 0.0316 µM
[14] = second compound 3.16 µM, first compound 0.1 µM
[15] = second compound 3.16 µM, first compound 0.316 µM
[16] = second compound 3.16 µM, first compound 1 µM
[17] = second compound 10 µM, first compound 0.0316 µM
[18] = second compound 10 µM, first compound 0.1 µM
[19] = second compound 10 µM, first compound 0.316 µM
[20] = second compound 10 µM, first compound 1 µM
[21] = second compound 0.1 µM, first compound 3.16 µM
[22] = second compound 0.1 µM, first compound 10 µM
[23] = second compound 0.316 µM, first compound 3.16 µM
[24] = second compound 0.316 µM, first compound 10 µM
[25] = second compound 1 µM, first compound 3.16 µM
[26] = second compound 1 µM, first compound 10 µM

SMILES: COc1c(OCCCN2CCOCC2)ccc2c3n(c(=NC(=O)c4cnc(N)nc4)nc12)CCN3 + Cc1c(S(C)(=O)=O)c(-c2cc(F)cc(N3CCN(c4ccc(NS(=O)(=O)c5ccc(NC(CCN6CCC(C(=O)OCCCP(=O)(O)O)CC6)CSc6ccccc6)c(S(=O)(=O)C(F)(F)F)c5)cc4)CC3)c2)c(-c2ccc(Cl)cc2)n1C(C)C
- IC50 (second compound 0.1 µM): 87.7 nM
- IC50 (second compound 0.316 µM): < 3.16 nM
- IC50 (second compound 1 µM): < 3.16 nM
- IC50 (second compound 3.16 µM): < 3.16 nM
- IC50 (second compound 10 µM): < 3.16 nM
- viability, T/C (second compound 0.1 µM, first compound 0.00316 µM): 79.6%
- viability, T/C (second compound 0.1 µM, first compound 0.01 µM): 80.2%
- viability, T/C [1]: 60.5%
- viability, T/C [2]: 45.7%
- viability, T/C [3]: 34.8%
- viability, T/C [4]: 14.1%
- viability, T/C (second compound 0.316 µM, first compound 0.00316 µM): 46.7%
- viability, T/C (second compound 0.316 µM, first compound 0.01 µM): 43%
- viability, T/C [5]: 24.1%
- viability, T/C [6]: 12.7%
- viability, T/C [7]: 10.1%
- viability, T/C [8]: 3.24%
- viability, T/C (second compound 1 µM, first compound 0.00316 µM): 14.9%
- viability, T/C (second compound 1 µM, first compound 0.01 µM): 9.99%
- viability, T/C [9]: 8.47%
- viability, T/C [10]: 2.77%
- viability, T/C [11]: 1.93%
- viability, T/C [12]: 0.85%
- viability, T/C (second compound 3.16 µM, first compound 0.00316 µM): 2.73%
- viability, T/C (second compound 3.16 µM, first compound 0.01 µM): 2.65%
- viability, T/C [13]: 1.29%
- viability, T/C [14]: 0.44%
- viability, T/C [15]: 0.22%
- viability, T/C [16]: 0.21%
- viability, T/C (second compound 10 µM, first compound 0.00316 µM): 2.03%
- viability, T/C (second compound 10 µM, first compound 0.01 µM): 1.93%
- viability, T/C [17]: 1.06%
- viability, T/C [18]: 0.31%
- viability, T/C [19]: 0.21%
- viability, T/C [20]: 0.23%

SMILES: O=C(c1ccc(F)c(F)c1Nc1ccc(I)cc1F)N1CC(O)([C@@H]2CCCCN2)C1 + CCN1C(C(=O)NC23CCC(C(=O)O)(CC2)CC3)C(c2cccc(Cl)c2F)C2(C(=O)Nc3cc(Cl)ccc32)C12CCCCC2
- IC50 (second compound 0.03 µM): > 1000 nM
- IC50 (second compound 0.0949 µM): > 1000 nM
- IC50 (second compound 0.3 µM): > 1000 nM
- IC50 (second compound 0.949 µM): > 1000 nM
- IC50 (second compound 3 µM): > 1000 nM
- viability, T/C (second compound 0.03 µM, first compound 0.00316 µM): 85.9%
- viability, T/C (second compound 0.03 µM, first compound 0.01 µM): 91.6%
- viability, T/C (second compound 0.03 µM, first compound 0.0316 µM): 88.9%
- viability, T/C (second compound 0.03 µM, first compound 0.1 µM): 85.9%
- viability, T/C (second compound 0.03 µM, first compound 0.316 µM): 88.2%
- viability, T/C (second compound 0.03 µM, first compound 1 µM): 81.2%
- viability, T/C (second compound 0.0949 µM, first compound 0.00316 µM): 101%
- viability, T/C (second compound 0.0949 µM, first compound 0.01 µM): 89%
- viability, T/C (second compound 0.0949 µM, first compound 0.0316 µM): 97.5%
- viability, T/C (second compound 0.0949 µM, first compound 0.1 µM): 84.1%
- viability, T/C (second compound 0.0949 µM, first compound 0.316 µM): 88.8%
- viability, T/C (second compound 0.0949 µM, first compound 1 µM): 88.8%
- viability, T/C (second compound 0.3 µM, first compound 0.00316 µM): 94.6%
- viability, T/C (second compound 0.3 µM, first compound 0.01 µM): 76.9%
- viability, T/C (second compound 0.3 µM, first compound 0.0316 µM): 91.6%
- viability, T/C (second compound 0.3 µM, first compound 0.1 µM): 89.6%
- viability, T/C (second compound 0.3 µM, first compound 0.316 µM): 85.4%
- viability, T/C (second compound 0.3 µM, first compound 1 µM): 89.5%
- viability, T/C (second compound 0.949 µM, first compound 0.00316 µM): 79.4%
- viability, T/C (second compound 0.949 µM, first compound 0.01 µM): 87.8%
- viability, T/C (second compound 0.949 µM, first compound 0.0316 µM): 85%
- viability, T/C (second compound 0.949 µM, first compound 0.1 µM): 87.5%
- viability, T/C (second compound 0.949 µM, first compound 0.316 µM): 78.8%
- viability, T/C (second compound 0.949 µM, first compound 1 µM): 87.8%
- viability, T/C (second compound 3 µM, first compound 0.00316 µM): 86.7%
- viability, T/C (second compound 3 µM, first compound 0.01 µM): 87.5%
- viability, T/C (second compound 3 µM, first compound 0.0316 µM): 78.5%
- viability, T/C (second compound 3 µM, first compound 0.1 µM): 89%
- viability, T/C (second compound 3 µM, first compound 0.316 µM): 90.7%
- viability, T/C (second compound 3 µM, first compound 1 µM): 77%

SMILES: C=C(F)C(=O)N1CCN(c2nc(OCC3CCCN3C)nc3c2CCN(c2cccc4cccc(Cl)c24)C3)CC1CC#N (stereo not given) + CNC(C)C(=O)NC1CN(S(=O)(=O)c2cccc(S(=O)(=O)N3CCC4CCC(C(=O)NC(c5ccccc5)c5ccccc5)N4C(=O)C(NC(=O)C(C)NC)C3)c2)CCC2CCC(C(=O)NC(c3ccccc3)c3ccccc3)N2C1=O
- IC50 (second compound 0.01 µM): 4600 nM
- IC50 (second compound 0.0316 µM): 3760 nM
- IC50 (second compound 0.1 µM): 3980 nM
- IC50 (second compound 0.316 µM): 3070 nM
- IC50 (second compound 1 µM): 3230 nM
- viability, T/C (second compound 0.01 µM, first compound 0.0316 µM): 111%
- viability, T/C (second compound 0.01 µM, first compound 0.1 µM): 101%
- viability, T/C (second compound 0.01 µM, first compound 0.316 µM): 106%
- viability, T/C (second compound 0.01 µM, first compound 1 µM): 92.2%
- viability, T/C (second compound 0.01 µM, first compound 3.16 µM): 76.2%
- viability, T/C (second compound 0.01 µM, first compound 10 µM): 0.22%
- viability, T/C (second compound 0.0316 µM, first compound 0.0316 µM): 98.6%
- viability, T/C (second compound 0.0316 µM, first compound 0.1 µM): 102%
- viability, T/C (second compound 0.0316 µM, first compound 0.316 µM): 93.2%
- viability, T/C (second compound 0.0316 µM, first compound 1 µM): 105%
- viability, T/C (second compound 0.0316 µM, first compound 3.16 µM): 58.8%
- viability, T/C (second compound 0.0316 µM, first compound 10 µM): 0.2%
- viability, T/C [1]: 90.6%
- viability, T/C [2]: 99.5%
- viability, T/C [3]: 89.8%
- viability, T/C [4]: 90%
- viability, T/C [21]: 62.3%
- viability, T/C [22]: 0.2%
- viability, T/C [5]: 94.5%
- viability, T/C [6]: 90.8%
- viability, T/C [7]: 94.8%
- viability, T/C [8]: 97.1%
- viability, T/C [23]: 48.9%
- viability, T/C [24]: 0.21%
- viability, T/C [9]: 95.2%
- viability, T/C [10]: 101%
- viability, T/C [11]: 106%
- viability, T/C [12]: 101%
- viability, T/C [25]: 50.9%
- viability, T/C [26]: 1.03%

SMILES: C#Cc1c(F)ccc2cc(O)cc(-c3ncc4c(N5CC6CCC(C5)N6)nc(OCC56CCCN5CC(F)C6)nc4c3F)c12 (stereo not given) + Cc1c(S(C)(=O)=O)c(-c2cc(F)cc(N3CCN(c4ccc(NS(=O)(=O)c5ccc(NC(CCN6CCC(C(=O)OCCCP(=O)(O)O)CC6)CSc6ccccc6)c(S(=O)(=O)C(F)(F)F)c5)cc4)CC3)c2)c(-c2ccc(Cl)cc2)n1C(C)C
- IC50 (second compound 0.1 µM): 5740 nM
- IC50 (second compound 0.316 µM): < 31.6 nM
- IC50 (second compound 1 µM): < 31.6 nM
- IC50 (second compound 3.16 µM): < 31.6 nM
- IC50 (second compound 10 µM): < 31.6 nM
- viability, T/C [1]: 72%
- viability, T/C [2]: 83.9%
- viability, T/C [3]: 71.8%
- viability, T/C [4]: 75.8%
- viability, T/C [21]: 64.7%
- viability, T/C [22]: 35.7%
- viability, T/C [5]: 42.6%
- viability, T/C [6]: 48%
- viability, T/C [7]: 34.8%
- viability, T/C [8]: 20.9%
- viability, T/C [23]: 12.9%
- viability, T/C [24]: 5.66%
- viability, T/C [9]: 12%
- viability, T/C [10]: 10.5%
- viability, T/C [11]: 7.98%
- viability, T/C [12]: 5.31%
- viability, T/C [25]: 3.23%
- viability, T/C [26]: 4.53%
- viability, T/C [13]: 3.15%
- viability, T/C [14]: 2.9%
- viability, T/C [15]: 3.53%
- viability, T/C [16]: 1.96%
- viability, T/C (second compound 3.16 µM, first compound 3.16 µM): 1.85%
- viability, T/C (second compound 3.16 µM, first compound 10 µM): 2.61%
- viability, T/C [17]: 2.05%
- viability, T/C [18]: 2.06%
- viability, T/C [19]: 2.12%
- viability, T/C [20]: 1.68%
- viability, T/C (second compound 10 µM, first compound 3.16 µM): 1.15%
- viability, T/C (second compound 10 µM, first compound 10 µM): 2.22%

From PubChem BioAssay AID1963440 (Molecular Pharmacology Branch, DTP, NCI, 2024)
